# From patent US20080063601A1, “Compositions and methods relating to polycystic kidney disease” (priority 2004, published 2008)
# How the values were obtained:
# HeLa cells [1] = experiment: [3H]-triptolide competition binding in intact HeLa cells
# Description: To gain insight into triptolide's mechanism of action Applicant sought to determine its specific binding activity utilizing a system employing [^3H]-triptolide. In addition to competition with 1 μM or 10 μM unlabeled triptolide, Applicant also measured the binding affinities of triptolide analogs (FIG. 3A). These analogs have been previously described and differ structurally from triptolide in the hydrolysis of the 12,13 epoxide (2), and formation of the ketone at the C-14 hydroxyl (3) (FIG. 3A). […] The effective interaction of these analogs with a presumed triptolide binding entity led us to their use in subsequent experiments addressing the mode of triptolide's biological functions.
# Labeling studies were performed by the addition of approximately 30 nM [^3H]-triptolide directly into the culture media for one hour at 37° C. For cold competition studies, 1 μM triptolide was incubated with the cells for one hour before or after the addition of [^3H]-triptolide. Triptolide analog studies followed a similar protocol where concentrations used for competition were either 1 or 10 μM added before [^3H]-triptolide. Medium was removed and cells were washed 3× in cold PBS. Total cell lysates were prepared (150 mM NaCl, 50 mM Tris-HCl pH 7.4, 1 mM EDTA, 1% Triton X-100, and Complete™ protease inhibitors (Roche)) and protein was quantitated before measuring the [^3H]-triptolide binding activity via liquid scintillation.
# polycystin-2 [2] = experiment: Fluo-4 calcium imaging in murine kidney epithelial cells; format: cell-based
# Description: (§1) Cells were plated on coverslips and loaded with Fluo-4 (Molecular Probes) diluted in DMSO/pluronic for 30 minutes prior to imaging. Cells were perfused with a calcium imaging buffer (HEPES, NaCl, KCl, MgSO4 and CaCl2) ±100 nM triptolide. All cell traces are indicative of individual cellular fluorescence and calcium release. Data is presented as change of fluorescence over baseline control (before triptolide addition).
# (§2) Murine kidney epithelial cell lines with differing polycystin-1 or polycystin-2 expression were used to establish a cellular based mechanism for polycystin-2 mediated calcium release in response to triptolide. Because the biochemical purification analysis identified polycystin-2 as a putative triptolide binding protein, Applicant assessed whether the calcium release was dependent upon expression of polycystin-1. Epithelial cells derived from the proximal nephric tubules of Pkd1^−/− mice were first examined to determine if calcium release was observed when 100 nM of triptolide was perfused through the imaging chamber. […] To strengthen the evidence that polycystin-2 was necessary for calcium release elicited by triptolide addition, it was reconstituted by stable expression of Pkd2 into the background of Pkd2^−/− cells, which were assessed for sensitivity to triptolide.
# polycystin-2 [3] = biological target: T1, polycystin-2 (Mus musculus, UniProt O35245); experiment: as above; format: cell-based; conditions: Pkd1^−/− cells, 100 nM perfused
# T1 construct: endogenous in cells; host or cells: Pkd1-/- (PN24) murine kidney proximal tubule epithelial cells
# T1 sequence (O35245 1-966): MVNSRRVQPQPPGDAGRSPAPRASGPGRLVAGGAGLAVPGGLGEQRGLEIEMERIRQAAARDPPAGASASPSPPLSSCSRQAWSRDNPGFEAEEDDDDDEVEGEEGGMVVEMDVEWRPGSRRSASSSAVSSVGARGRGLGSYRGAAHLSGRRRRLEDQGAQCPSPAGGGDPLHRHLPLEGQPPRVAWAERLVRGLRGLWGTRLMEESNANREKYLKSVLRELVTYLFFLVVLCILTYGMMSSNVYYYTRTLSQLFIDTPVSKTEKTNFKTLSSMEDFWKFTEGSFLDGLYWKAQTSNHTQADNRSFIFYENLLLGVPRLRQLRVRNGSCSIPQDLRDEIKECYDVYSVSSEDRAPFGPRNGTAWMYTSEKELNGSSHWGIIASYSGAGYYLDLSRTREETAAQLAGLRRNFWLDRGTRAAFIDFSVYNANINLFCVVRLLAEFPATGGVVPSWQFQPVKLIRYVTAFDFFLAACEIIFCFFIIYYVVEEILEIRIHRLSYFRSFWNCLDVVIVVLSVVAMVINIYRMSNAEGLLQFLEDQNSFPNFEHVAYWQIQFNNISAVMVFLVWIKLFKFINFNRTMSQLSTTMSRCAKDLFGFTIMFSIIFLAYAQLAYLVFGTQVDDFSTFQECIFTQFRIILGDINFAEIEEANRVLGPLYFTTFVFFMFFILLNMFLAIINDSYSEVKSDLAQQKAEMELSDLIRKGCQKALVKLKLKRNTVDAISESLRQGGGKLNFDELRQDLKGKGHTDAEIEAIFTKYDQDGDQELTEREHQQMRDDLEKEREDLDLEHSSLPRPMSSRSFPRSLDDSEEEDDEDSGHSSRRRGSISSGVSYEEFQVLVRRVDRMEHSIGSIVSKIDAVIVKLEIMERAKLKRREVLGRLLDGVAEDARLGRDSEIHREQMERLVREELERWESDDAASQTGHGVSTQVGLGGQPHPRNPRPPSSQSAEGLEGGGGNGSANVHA
# Description: as §1, §2
# HeLa cells [4] = experiment: [3H]-triptolide saturation (specific) binding in HeLa cells; conditions: 0-100 nM [3H]-triptolide 1 h, non-specific binding with 2 μM cold triptolide, read-out: [3H]-triptolide binding affinity (KD), specific binding
# Description: Based upon the data above, Applicant next sought to determine if triptolide binding was saturable and if more than one protein (or binding site) was being targeted. Determination of the [^3H]-triptolide binding affinity (KD) and the binding capacity per cell (Bmax) were calculated using a saturation plot. HeLa cells were cultured to 90% confluency and subsequently treated with 0-100 nM of [^3H]-triptolide for one hour. Non-specific binding was defined using 2 μM cold triptolide as competitor. Bmax was calculated to be 99±19 fmol triptolide bound/[…] of triptolide binding sites.
# Saturation binding assays were accomplished in HeLa cells adhered on 6-well plates in DMEM+10% FBS. All samples were at least 90% confluent at time of addition of triptolide. Non-specific binding of [^3H]-triptolide was assessed by the pre-incubation of 2 μM (non-labeled) triptolide for one hour. Following cold competition (or DMSO) 5, 10, 20, 50, or 100 nM of [^3H]-triptolide was added into the cultures for an additional one hour, and then cells were lysed and counted for binding activity.
smiles,measurement,setting,value
CC(C)[C@]12O[C@H]1[C@@H]1O[C@]13[C@]1(O[C@H]1C[C@H]1C4=C(CC[C@@]13C)C(=O)OC4)[C@@H]2O [triptolide],nature of triptolide binding (out-competed by subsequent excess unlabeled triptolide),HeLa cells [1]; 1 μM cold triptolide after [3H]-triptolide,reversible
same,displacement of / competition for [3H]-triptolide binding,HeLa cells [1]; 1 or 10 μM unlabeled competitor for 1 h before approx. 30 nM [3H]-triptolide for 1 h,significantly competed
same,calcium release (Fluo-4 fluorescence),"polycystin-2 [2]; Pkd2^−/− cells, 100 nM perfused",no calcium release was detected
same,calcium release (Fluo-4 fluorescence),"polycystin-2 [2]; Pkd2 re-expressed (Rex) in Pkd2^−/− background, 100 nM",restored calcium release
same,calcium release (Fluo-4 fluorescence),polycystin-2 [3],clear rise in intracellular calcium levels
same,Kd,HeLa cells [4],15.5 ± 0.8 nM
